# Laboratory results published in patent EP0153845A2, “CRF analogs” (THE SALK INSTITUTE FOR BIOLOGICAL STUDIES, priority 1984, dated 1985).
# Square brackets hold non-standard residues; d marks the D form. Ends that are not written are not given here. Peptide text beside a SMILES is read from it. Nle = CCCC[C@H](N)C(=O)O
# Key:
# [1] = Lowering of blood pressure, in vivo testing by the general procedure of Example III
# [2] = target: T1, cultured rat pituitary cells (Rattus norvegicus, UniProt P35353); experiment: Block of ACTH and β-endorphin secretion by cultured rat pituitary cells by CRF antagonists (procedure of Example XLIII); format: cell-based; settings: general procedure of Example XLIII
# T1 sequence (P35353 24-415): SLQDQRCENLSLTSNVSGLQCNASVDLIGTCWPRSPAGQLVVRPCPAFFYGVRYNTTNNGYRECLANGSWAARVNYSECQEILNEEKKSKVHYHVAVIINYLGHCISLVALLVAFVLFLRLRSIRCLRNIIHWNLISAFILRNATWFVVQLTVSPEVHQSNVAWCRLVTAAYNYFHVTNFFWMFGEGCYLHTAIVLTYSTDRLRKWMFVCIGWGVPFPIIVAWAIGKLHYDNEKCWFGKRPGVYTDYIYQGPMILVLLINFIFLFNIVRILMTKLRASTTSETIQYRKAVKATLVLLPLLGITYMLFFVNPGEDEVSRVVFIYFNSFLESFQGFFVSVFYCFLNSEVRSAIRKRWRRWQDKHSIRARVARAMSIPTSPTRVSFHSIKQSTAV
# Description: The effectiveness of synthetic CRF antagonists to block the secretion of ACTH and B-endorphin by cultured rat pituitary cells is measured using the procedure as generally set forth in Vale et al., Endocrinology, 91, 562 (1972). In vivo testing is carried out using the general procedure set forth in C. Rivier et al., Science, 218, 377 (1982).
# [3] = test system: ACTH and B-END-LI secretion; experiment: ACTH and β-END-LI secretion in vivo after intravenous hCRF in rats
# Description: Plasma levels of ACTH and B-END-LI are elevated for at least 5-20 minutes following the intraveneous administration of hCRF to nembutal-anesthesized male rats and to quiescent male or female rats with indwelling intravenous cannulae.
Compound,secretion of ACTH and β-END-LI (antagonist test) [2],other results
"H-Asp-CML-Thr-Leu-Glu-CML-Leu-Arg-Glu-Met-CML-Glu-Met-Ala-Lys-Ala-Glu-Gln-CML-Ala-Glu-Gln-Ala-Ala-CML-Asn-Arg-Leu-CML-Leu-Glu-Glu-Ala-NH2 [[CML^10,14,19,27,33,38]-AHC(9-41)]",stimulates,lowering of blood pressure [1]: very significant lowering of blood pressure
CC[C@H](C)[C@H](NC(=O)[C@@H](NC(=O)[C@H](CCC(=O)O)NC(=O)[C@H](CCSC)NC(=O)[C@H](CC(C)C)NC(=O)[C@H](CCCCN)NC(=O)[C@H](CCCNC(=N)N)NC(=O)[C@H](CC(N)=O)NC(=O)[C@H](CO)NC(=O)[C@H](Cc1c[nH]cn1)NC(=O)[C@H](C)NC(=O)[C@H](CCC(N)=O)NC(=O)[C@H](CCC(N)=O)NC(=O)[C@H](C)NC(=O)[C@H](CC(C)C)NC(=O)[C@H](CCC(N)=O)NC(=O)[C@H](CCC(=O)O)NC(=O)[C@H](C)NC(=O)[C@H](CCCNC(=N)N)NC(=O)[C@H](C)NC(=O)[C@H](CCSC)NC(=O)[C@H](CCC(=O)O)NC(=O)[C@H](CC(C)C)NC(=O)[C@@H](NC(=O)[C@H](CCC(=O)O)NC(=O)[C@H](CCCNC(=N)N)NC(=O)[C@H](CC(C)C)NC(=O)[C@H](CC(C)C)NC(=O)[C@H](Cc1c[nH]cn1)NC(=O)[C@H](Cc1ccccc1)NC(=O)[C@@H](NC(=O)[C@H](CC(C)C)NC(=O)[C@H](CC(=O)O)NC(=O)[C@H](CC(C)C)NC(=O)[C@H](CO)NC(=O)[C@@H](NC(=O)[C@@H]1CCCN1C(=O)[C@@H]1CCCN1C(=O)[C@H](CCC(=O)O)NC(=O)[C@H](CCC(=O)O)NC(=O)[C@@H](N)CO)[C@@H](C)CC)[C@@H](C)O)C(C)C)[C@@H](C)CC)C(N)=O [hCRF],,"time for which plasma levels of ACTH and B-END-LI are elevated ([3]; intravenous administration, nembutal-anesthetized male rats and quiescent male or female rats with indwelling intravenous cannulae): 5 to 20 min; ACTH and B-END-LI secretion in vivo ([3]; several rat preparations): powerful stimulator"
"CCCC[C@H](NC(=O)[C@H](CCC(=O)O)NC(=O)[C@H](CC(C)C)NC(=O)[C@@H](NC(=O)[C@H](CCC(=O)O)NC(=O)[C@H](CCCNC(=N)N)NC(=O)[C@H](CC(C)C)NC(=O)[C@H](CC(C)C)NC(=O)[C@H](Cc1c[nH]cn1)NC(=O)[C@H](Cc1ccccc1)NC(=O)[C@@H](NC(=O)[C@H](CC(C)C)NC(=O)[C@@H](N)CC(=O)O)[C@@H](C)O)C(C)C)C(=O)N[C@@H](C)C(=O)N[C@@H](CCCNC(=N)N)C(=O)N[C@@H](C)C(=O)N[C@@H](CCC(=O)O)C(=O)N[C@@H](CCC(N)=O)C(=O)N[C@@H](CC(C)C)C(=O)N[C@@H](C)C(=O)N[C@@H](CCC(N)=O)C(=O)N[C@@H](CCC(N)=O)C(=O)N[C@@H](C)C(=O)N[C@@H](Cc1ccc(O)cc1)C(=O)N[C@@H](CO)C(=O)N[C@@H](CC(N)=O)C(=O)N[C@@H](CCCNC(=N)N)C(=O)N[C@@H](CCCCN)C(=O)N[C@@H](CC(C)C)C(=O)N[C@@H](CCSC)C(=O)N[C@@H](CCC(=O)O)C(=O)N[C@H](C(=O)N[C@H](C(N)=O)[C@@H](C)CC)[C@@H](C)CC [[Nle^21, Tyr^32]-hCRF(9-41)] (H-DLTFHLLREVLE[Nle]ARAEQLAQQAYSNRKLMEII-NH2)",inhibits,
"H-DLSLELLRKMIEIAKQEKEKQQAANNRLLMDTI-NH2 [[Ala^21, Met^37]-sauvagine(8-40)]",inhibits,
"Ac-DLTFHLLREVLEMARAEQLAQQAHSNRKLMDII-NH2 [[Acetyl-Asp^9, Asp^39]-hCRF(9-41)]",inhibits,
"CCCC[C@H](NC(=O)[C@@H](NC(=O)[C@H](CCC(=O)O)NC(=O)[C@H](CC(C)C)NC(=O)[C@H](CC(C)C)NC(=O)[C@H](CCCCN)NC(=O)[C@H](CCCNC(=N)N)NC(=O)[C@H](CC(N)=O)NC(=O)[C@H](CO)NC(=O)[C@H](Cc1c[nH]cn1)NC(=O)[C@H](C)NC(=O)[C@H](CCC(N)=O)NC(=O)[C@H](CCC(N)=O)NC(=O)[C@H](C)NC(=O)[C@H](CC(C)C)NC(=O)[C@H](CCC(N)=O)NC(=O)[C@H](CCC(=O)O)NC(=O)[C@H](C)NC(=O)[C@H](CCCNC(=N)N)NC(=O)[C@H](C)NC(=O)[C@H](C)NC(=O)[C@H](CCC(=O)O)NC(=O)[C@H](CC(C)C)NC(=O)[C@@H](NC(=O)[C@H](CCC(=O)O)NC(=O)[C@H](CCCNC(=N)N)NC(=O)[C@H](CC(C)C)NC(=O)[C@H](CC(C)C)NC(=O)[C@H](Cc1c[nH]cn1)NC(=O)[C@H](Cc1ccccc1)NC(=O)[C@@H](NC(=O)[C@H](CC(C)C)NC(=O)[C@@H](N)CC(=O)O)[C@@H](C)O)C(C)C)[C@@H](C)CC)C(N)=O [[Ala, Leu^38, Nle^41]-hCRF(9-41)] (H-DLTFHLLREVLEAARAEQLAQQAHSNRKLLEI[Nle]-NH2)",inhibits,
H-DLTFHLLRNMIEMARNENQREQAGLNRKYLDEV-NH2 [Carp Urotensin 1(9-41)],inhibits,
"H-DLTFHLLREVAEMTRAEQLAQQAHSNRKLMEII-NH2 [(Ala^19, Thr^22]-hCRF(9-41)]",inhibits,
H-DLTFALLREMLEMAKAEQEAEQAALNRLLLEEA-NH2 [[Ala^13]-AHC(9-41)],inhibits,
"H-DLTFELLREVLEVARAEQLAQQAHSNRKLMEII-NH2 [[G1u^13, Val^21]-hCRF(9-41)]",inhibits,
"CCCC[C@H](NC(=O)[C@H](CCC(=O)O)NC(=O)[C@H](CC(C)C)NC(=O)[C@H](CCCC)NC(=O)[C@H](CCC(=O)O)NC(=O)[C@H](CCCNC(=N)N)NC(=O)[C@H](CC(C)C)NC(=O)[C@H](CC(C)C)NC(=O)[C@H](Cc1c[nH]cn1)NC(=O)[C@H](Cc1ccccc1)NC(=O)[C@@H](NC(=O)[C@H](CC(C)C)NC(=O)[C@@H](N)CC(=O)O)[C@@H](C)O)C(=O)N[C@@H](C)C(=O)N[C@@H](CCCCN)C(=O)N[C@@H](C)C(=O)N[C@@H](CCC(=O)O)C(=O)N[C@@H](CCC(N)=O)C(=O)N[C@@H](CCC(=O)O)C(=O)N[C@@H](C)C(=O)N[C@@H](CCC(=O)O)C(=O)N[C@@H](CCC(N)=O)C(=O)N[C@@H](C)C(=O)N[C@@H](C)C(=O)N[C@@H](CC(C)C)C(=O)N[C@@H](CC(N)=O)C(=O)N[C@@H](CCCNC(=N)N)C(=O)N[C@@H](CC(C)C)C(=O)N[C@@H](CC(C)C)C(=O)N[C@@H](CC(C)C)C(=O)N[C@@H](CCC(=O)O)C(=O)N[C@@H](CCC(=O)O)C(=O)N[C@@H](C)C(N)=O [[Nie^18,21]-AHC(9-41)] (H-DLTFHLLRE[Nle]LE[Nle]AKAEQEAEQAALNRLLLEEA-NH2)",inhibits,
H-Asp-CML-Thr-Leu-Glu-CML-CML-Arg-Glu-Met-CML-Glu-Met-CMA-Lys-Ala-Glu-Gln-CML-Ala-Glu-Gln-Ala-CMA-CML-Asn-Arg-Leu-CML-Leu-Glu-Glu-. CMA-NB2,inhibits,
LSLELLRKMIEARKQEKEKQQAANNRLLLDII-NH2,inhibits,
CCCC[C@H](NC(=O)[C@@H](NC(=O)[C@@H](N)CC(C)C)[C@@H](C)O)C(=O)N[C@@H](Cc1c[nH]cn1)C(=O)N[C@@H](CC(C)C)C(=O)N[C@@H](CC(C)C)C(=O)N[C@@H](CCCNC(=N)N)C(=O)N[C@@H](CCC(=O)O)C(=O)N[C@H](C(=O)N[C@@H](CC(C)C)C(=O)N[C@@H](CCC(=O)O)C(=O)N[C@@H](CCSC)C(=O)N[C@@H](C)C(=O)N[C@@H](CCCNC(=N)N)C(=O)N[C@@H](C)C(=O)N[C@@H](CCC(=O)O)C(=O)N[C@@H](CCC(N)=O)C(=O)N[C@@H](CC(C)C)C(=O)N[C@@H](C)C(=O)N[C@@H](CCC(N)=O)C(=O)N[C@@H](CCC(N)=O)C(=O)N[C@@H](C)C(=O)N[C@@H](Cc1c[nH]cn1)C(=O)N[C@@H](CO)C(=O)N[C@@H](CC(N)=O)C(=O)N[C@@H](CCCNC(=N)N)C(=O)N[C@@H](CCCCN)C(=O)N[C@@H](CC(C)C)C(=O)N[C@@H](CCSC)C(=O)N[C@@H](CCC(=O)O)C(=O)N[C@H](C(=O)N[C@H](C(N)=O)[C@@H](C)CC)[C@@H](C)CC)C(C)C [[N1e^12]-hCRF(10-41)] (H-LT[Nle]HLLREVLEMARAEQLAQQAHSNRKLMEII-NH2),inhibits,
"CCCC[C@H](NC(=O)[C@H](CCC(=O)O)NC(=O)[C@H](CC(C)C)NC(=O)[C@H](CCCC)NC(=O)[C@H](CCC(=O)O)NC(=O)[C@H](CCCNC(=N)N)NC(=O)[C@H](CC(C)C)NC(=O)[C@H](CC(C)C)NC(=O)[C@H](Cc1c[nH]cn1)NC(=O)[C@H](Cc1ccccc1)NC(=O)[C@@H](NC(=O)[C@H](CC(C)C)NC(=O)[C@H](CC(=O)O)NC(=O)[C@@H](N)CC(C)C)[C@@H](C)O)C(=O)N[C@@H](C)C(=O)N[C@@H](CCCCN)C(=O)N[C@@H](C)C(=O)N[C@@H](CCC(=O)O)C(=O)N[C@@H](CCC(N)=O)C(=O)N[C@@H](CCC(=O)O)C(=O)N[C@@H](C)C(=O)N[C@@H](CCC(=O)O)C(=O)N[C@@H](CCC(N)=O)C(=O)N[C@@H](C)C(=O)N[C@@H](C)C(=O)N[C@@H](CC(C)C)C(=O)N[C@@H](CC(N)=O)C(=O)N[C@@H](CCCNC(=N)N)C(=O)N[C@@H](CC(C)C)C(=O)N[C@@H](CC(C)C)C(=O)N[C@@H](CC(C)C)C(=O)N[C@@H](CCC(=O)O)C(=O)N[C@@H](CCC(=O)O)C(=O)N[C@@H](C)C(N)=O [[Nle^18,21]-AHC(8-41)] (H-LDLTFHLLRE[Nle]LE[Nle]AKAEQEAEQAALNRLLLEEA-NH2)",inhibits,
